Usually logP stands for a log measure of how a compound divides between an organic and an aqueous phase. High values mean a more lipophilic compound, low ones a more hydrophilic compound. Regarding `Cc1cc(C)c2c(c1)NC(=O)C2OC(=O)Cc1ccccc1` (stereo not given), the logP is 3.22.

`CCCCC1(O)C(=O)N(C)c2ccccc2C1=CC(=O)O` (stereo not given) gave a logP of 2.23.

In the case of `CCCCC1(O)C(=O)Nc2ccccc2C1=CC(=O)O` (stereo not given), the logP was 2.18.

As to `O=C(O)C=C1c2ccccc2N(c2ccccc2)C(=O)C1(O)c1ccccc1` (stereo not given), the lipophilicity (logP) is 2.83.

With `CCCCC1(O)C(=O)N(c2ccccc2)c2ccccc2C1=CC(=O)O` (stereo not given), the log partition coefficient (logP) came out at 2.44.

`Cc1ccc(Cl)c2c1NC(=O)C2OC(=O)Cc1ccccc1` (stereo not given) had a logP of 3.19.

`CCCCC1(O)C(=O)N(C)c2ccccc2C1=CC(=O)OCC` (stereo not given) returned a logP of 4.21.

Turning to `O=C(O)C=C1c2ccccc2N(c2ccccc2)C(=O)C1(O)Cc1ccccc1` (stereo not given), the log partition coefficient (logP) was 2.57.

For `CN1C(=O)C(O)(Cc2ccccc2)C(=CC(=O)O)c2ccccc21` (stereo not given), the log partition coefficient (logP) came out at 2.31.

The compound `CCOC(=O)C=C1c2ccccc2NC(=O)C1(O)Cc1ccccc1` (stereo not given) displayed a logP of 4.16.

Regarding `CCCCC(=O)OC1C(=O)Nc2cc(C)cc(C)c21` (stereo not given), the lipophilicity (logP) amounted to 3.19.

`O=C(O)C=C1c2ccccc2NC(=O)C1(O)Cc1ccccc1` (stereo not given) yielded a logP of 2.27.

In turn, `CCCCC1(O)C(=O)Nc2ccccc2C1=CC(=O)OCC` (stereo not given) gave a logP of 4.47.

`CCCCC(=O)OC1C(=O)Nc2c(C)ccc(C)c21` (stereo not given) had a logP of 3.2.

Turning to `CCOC(=O)C=C1c2ccccc2N(C)C(=O)C1(O)Cc1ccccc1` (stereo not given), the log partition coefficient (logP) amounted to 4.75.

Values taken from the SangsterLogP compilation.
